In US8415378B2, “Isoxazol-3(2H)-one analogs as therapeutic agents” (AstraZeneca AB, priority 2009, dated 2013):

target: T1, human Glu-plasminogen (Homo sapiens, UniProt P00747); assay: Clot-lysis buffer assay; assay type: biochemical
T1 construct: human Glu-plasminogen; purchased Chromogenix, Italy
Method: The assay method used for evaluating biological activity of the compounds according to the invention was Clot-lysis buffer assay.
Tested substance were added to the reaction mixture in 10% DMSO. Reaction was started by the addition of thrombin.
Measured according to the Clot-lysis buffer assay described above.

T1 sequence (P00747 20-810 limits assumed): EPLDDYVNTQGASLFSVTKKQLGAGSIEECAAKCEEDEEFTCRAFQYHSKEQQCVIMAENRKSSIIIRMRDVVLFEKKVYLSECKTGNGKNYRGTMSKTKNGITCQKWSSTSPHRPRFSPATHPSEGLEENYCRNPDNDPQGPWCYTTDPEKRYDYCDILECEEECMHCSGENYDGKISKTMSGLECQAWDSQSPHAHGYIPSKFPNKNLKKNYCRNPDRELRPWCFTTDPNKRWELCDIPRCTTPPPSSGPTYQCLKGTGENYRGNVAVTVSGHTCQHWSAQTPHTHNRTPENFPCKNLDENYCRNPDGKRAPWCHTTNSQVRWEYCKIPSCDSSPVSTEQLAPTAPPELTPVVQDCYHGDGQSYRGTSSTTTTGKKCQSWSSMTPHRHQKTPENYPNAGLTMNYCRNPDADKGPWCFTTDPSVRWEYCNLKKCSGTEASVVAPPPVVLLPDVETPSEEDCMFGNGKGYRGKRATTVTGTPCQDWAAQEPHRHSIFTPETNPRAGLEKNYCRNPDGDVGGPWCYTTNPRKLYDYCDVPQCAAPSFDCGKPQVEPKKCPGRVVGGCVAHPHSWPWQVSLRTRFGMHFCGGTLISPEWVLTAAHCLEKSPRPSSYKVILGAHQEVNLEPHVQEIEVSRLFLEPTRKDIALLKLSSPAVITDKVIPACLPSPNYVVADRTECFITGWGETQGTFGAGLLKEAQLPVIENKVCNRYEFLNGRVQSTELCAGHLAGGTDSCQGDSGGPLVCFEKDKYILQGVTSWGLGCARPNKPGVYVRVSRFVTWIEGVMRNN

Row | SMILES | IC50
1 | O=c1cc([C@H]2CCN[C@@H](c3cccc(C(F)(F)F)c3)C2)o[nH]1 [Example 30, 5-((2R,4S)-2-(3-(Trifluoromethyl)phenyl)piperidin-4-yl)isoxazol-3(2H)-one] | 0.7 µM
2 | O=c1cc([C@@H]2CCN[C@H](c3cccc(C(F)(F)F)c3)C2)o[nH]1 [Example 31, 5-((2S,4R)-2-(3-(Trifluoromethyl)phenyl)piperidin-4-yl)isoxazol-3(2H)-one] | 33.1 µM
3 | O=c1cc([C@H]2CCN[C@@H](c3ccc(C(F)(F)F)cc3)C2)o[nH]1 [Example 33, 5-((2R,4S)-2-(4-(Trifluoromethyl)phenyl)piperidin-4-yl)isoxazol-3(2H)-one] | 1.43 µM
4 | O=c1cc([C@@H]2CCN[C@H](c3ccc(C(F)(F)F)cc3)C2)o[nH]1 [Example 34, 5-((2S,4R)-2-(4-(Trifluoromethyl)phenyl)piperidin-4-yl)isoxazol-3(2H)-one] | 150 µM
5 | CS(=O)(=O)c1ccc([C@H]2C[C@@H](c3cc(=O)[nH]o3)CCN2)cc1 [Example 38, 5-((2R,4S)-2-(4-(Methylsulfonyl)phenyl)piperidin-4-yl)isoxazol-3(2H)-one] | 1.5 µM
6 | CS(=O)(=O)c1ccc(C2CC(c3cc(=O)[nH]o3)CCN2)cc1 (stereo not drawn) [Example 39, 5-((Trans-2-(4-(methylsulfonyl)phenyl)piperidin-4-yl)isoxazol-3(2H)-one] | 97.3 µM
7 | O=c1cc([C@H]2CCN[C@@H](c3ccc(C(F)(F)F)nc3)C2)o[nH]1 [Example 40, 5-((2R,4S)-2-(6-(Trifluoromethyl)pyridin-3-yl)piperidin-4-yl)isoxazol-3(2H)-one] | 1.5 µM
8 | CC(C)(C)c1ccc([C@H]2C[C@@H](c3cc(=O)[nH]o3)CCN2)s1 [Example 42, 5-((2R,4S)-2-(5-tert-Butylthiophen-2-yl)piperidin-4-yl)isoxazol-3(2H)-one] | 34.9 µM
9 | CC(C)(C)c1ccc([C@@H]2C[C@H](c3cc(=O)[nH]o3)CCN2)s1 [Example 43, 5-((2S,4R)-2-(5-tert-Butylthiophen-2-yl)piperidin-4-yl)isoxazol-3(2H)-one] | 77.5 µM
10 | O=c1cc([C@H]2CCN[C@@H](c3cc(F)c(F)c(F)c3)C2)o[nH]1 [Example 60, 5-((2R,4S)-2-(3,4,5-Trifluorophenyl)piperidin-4-yl)isoxazol-3(2H)-one] | 1.9 µM
11 | O=c1cc([C@@H]2CCN[C@H](c3cc(F)c(F)c(F)c3)C2)o[nH]1 [Example 61, 5-((2S,4R)-2-(3,4,5-Trifluorophenyl)piperidin-4-yl)isoxazol-3(2H)-one] | 858 µM
12 | Cc1cc([C@H]2C[C@@H](c3cc(=O)[nH]o3)CCN2)ccc1C(F)(F)F [Example 67, 5-((2R,4S)-2-(3-Methyl-4-(trifluoromethyl)phenyl)piperidin-4-yl)isoxazol-3(2H)-one] | 1.3 µM
13 | Cc1cc([C@@H]2C[C@H](c3cc(=O)[nH]o3)CCN2)ccc1C(F)(F)F [Example 68, 5-((2S,4R)-2-(3-Methyl-4-(trifluoromethyl)phenyl)piperidin-4-yl)isoxazol-3(2H)-one] | 81.1 µM
14 | O=c1cc([C@H]2CCN[C@@H](c3cc(F)c(C(F)(F)F)c(F)c3)C2)o[nH]1 [Example 70, 5-((2R,4S)-2-(3,5-Difluoro-4-(trifluoromethyl)phenyl)piperidin-4-yl)isoxazol-3(2H)-one] | 2.5 µM

Now from value to compound:

Row | IC50 | SMILES
15 | 1.5 µM | O=c1cc([C@H]2CCN[C@@H](c3ccc(Cl)cc3)C2)o[nH]1 [Example 27, 5-((2R,4S)-2-(4-Chlorophenyl)piperidin-4-yl)isoxazol-3(2H)-one]
16 | 283 µM | O=c1cc([C@@H]2CCN[C@H](c3ccc(Cl)cc3)C2)o[nH]1 [Example 28, 5-((2S,4R)-2-(4-Chlorophenyl)piperidin-4-yl)isoxazol-3(2H)-one]
17 | 1.9 µM | CC(C)(C)c1cccc([C@H]2C[C@@H](c3cc(=O)[nH]o3)CCN2)c1 [Example 36, 5-((2R,4S)-2-(3-tert-Butylphenyl)piperidin-4-yl)isoxazol-3(2H)-one]
18 | 2.3 µM | O=c1cc([C@H]2CCN[C@@H](c3ccc(F)cc3F)C2)o[nH]1 [Example 44, 5-((2R,4S)-2-(2,4-Difluorophenyl)piperidin-4-yl)isoxazol-3(2H)-one]
19 | 2.35 µM | O=c1cc([C@H]2CCN[C@@H](c3ccc(Cl)cc3F)C2)o[nH]1 [Example 45, 5-((2R,4S)-2-(4-Chloro-2-fluorophenyl)piperidin-4-yl)isoxazol-3(2H)-one]
20 | 1.4 µM | O=c1cc([C@H]2CCN[C@@H](c3ccc(F)cc3Cl)C2)o[nH]1 [Example 47, 5-((2R,4S)-2-(2-Chloro-4-fluorophenyl)piperidin-4-yl)isoxazol-3(2H)-one]
21 | 2 µM | O=c1cc([C@H]2CCN[C@@H](c3ccc(Cl)c(F)c3)C2)o[nH]1 [Example 49, 5-((2R,4S)-2-(4-Chloro-3-fluorophenyl)piperidin-4-yl)isoxazol-3(2H)-one]
22 | 0.9 µM | O=c1cc([C@H]2CCN[C@@H](c3ccc(Cl)cc3Cl)C2)o[nH]1 [Example 51, 5-((2R,4S)-2-(2,4-Dichlorophenyl)piperidin-4-yl)isoxazol-3(2H)-one]
23 | 1940 µM | O=c1cc([C@@H]2CCN[C@H](c3ccc(Cl)cc3Cl)C2)o[nH]1 [Example 52, 5-((2S,4R)-2-(2,4-Dichlorophenyl)piperidin-4-yl)isoxazol-3(2H)-one]
24 | 72.9 µM | O=c1cc([C@H]2CCN[C@H](c3ccc(Cl)cc3Cl)C2)o[nH]1 [Example 53, 5-((2S,4S)-2-(2,4-Dichlorophenyl)piperidin-4-yl)isoxazol-3(2H)-one]
25 | 372 µM | O=c1cc([C@@H]2CCN[C@@H](c3ccc(Cl)cc3Cl)C2)o[nH]1 [Example 54, 5-((2R,4R)-2-(2,4-Dichlorophenyl)piperidin-4-yl)isoxazol-3(2H)-one]
26 | 0.6 µM | O=c1cc([C@H]2CCN[C@@H](c3cc(Cl)cc(Cl)c3)C2)o[nH]1 [Example 55, 5-((2R,4S)-2-(3,5-Dichlorophenyl)piperidin-4-yl)isoxazol-3(2H)-one]
27 | 43.8 µM | O=c1cc([C@@H]2CCN[C@H](c3cc(Cl)cc(Cl)c3)C2)o[nH]1 [Example 56, 5-((2S,4R)-2-(3,5-Dichlorophenyl)piperidin-4-yl)isoxazol-3(2H)-one]
28 | 2.1 µM | O=c1cc([C@H]2CCN[C@@H](c3ccc(OC(F)(F)F)cc3F)C2)o[nH]1 [Example 58, 5-((2R,4S)-2-(2-Fluoro-4-(trifluoromethoxy)phenyl)piperidin-4-yl)isoxazol-3(2H)-one]
29 | 3.22 µM | O=c1cc([C@H]2CCN[C@@H](c3cc(F)c(F)cc3F)C2)o[nH]1 [Example 63, 5-((2R,4S)-2-(2,4,5-Trifluorophenyl)piperidin-4-yl)isoxazol-3(2H)-one]
30 | 31.4 µM | O=c1cc([C@H]2CCN[C@H](c3cc(F)c(F)cc3F)C2)o[nH]1 [Example 64, 5-((2S,4S)-2-(2,4,5-Trifluorophenyl)piperidin-4-yl)isoxazol-3(2H)-one]
31 | 2.2 µM | O=c1cc([C@H]2CCN[C@@H](c3cc(F)c(Cl)c(F)c3)C2)o[nH]1 [Example 65, 5-((2R,4S)-2-(4-Chloro-3,5-difluorophenyl)piperidin-4-yl)isoxazol-3(2H)-one]
32 | 0.6 µM | Cc1cc(C(F)(F)F)ccc1[C@H]1C[C@@H](c2cc(=O)[nH]o2)CCN1 [Example 72, 5-((2R,4S)-2-(2-Methyl-4-(trifluoromethyl)phenyl)piperidin-4-yl)isoxazol-3(2H)-one]
